Broadly, the melting point is the temperature of the solid-liquid transition. The term inhibition denotes the change of the read-out against control, counted positive when it falls.

The values that follow come from patent publication US20020128434A1, “Alpha-(1,3-dicarbonylenol ether) methyl ketones as cysteine protease inhibitors” (priority 1993, published 2002).

In data set [1] the target is T1, Cathepsin B, purified from human liver (Homo sapiens, UniProt P07858).
T1 construct: Cathepsin B, purified from human liver; purchased Enzyme Systems Products (Dublin, Calif.); host or cells: human liver (tissue-purified)
Nature of the data set: In vitro evaluation of inhibitors with purified cathepsin B. Type of data set: biochemical. As to the method:
Enzyme: Cathepsin B, purified from human liver, is from Enzyme Systems Products (Dublin, Calif.). The activity is 50 mU per ml at 30° C., in 52 mM sodium phosphate, pH 6.2, 31 mM DTT, 2.1 mM EDTA, with 0.2 mM Z—Arg—Arg-7-amino-4-trifluoromethyl-coumarin as a substrate. Specific activity is 8330 mU per mg protein. (1 mU=1 nmol per min.)
Substrate Boc—Leu—Arg—Arg-7-amino-4-trifluoromethyl-coumarin-2HBr is from Enzyme Systems Products (Dublin, Calif.) and is known to be a specific substrate for cathepsin B. A 20 mM solution is made in DMF and stored at […].
Candidate inhibitors are dissolved in DMF and diluted to 20 mM and stored at […]. Dilutions are made in assay buffer.
The percent inhibition and the inhibitor concentration at which the enzyme is 50% inhibited (IC50) are determined as follows. Five μl of assay buffer (50 mM potassium phosphate pH 6.2, 2 mM EDTA, 5 mM DTT) on ice for 30 min. The inhibition is initiated by the addition of […] inhibitor each to the 480 μl aliquots. The 485 μl aliquot with enzyme is used as a control and thus receives no inhibitor. The enzyme/inhibitor mixtures are incubated 10 min. on ice and assayed for cathepsin B activity as follows:
Cathepsin B assay: To 490 μl of pre-incubated inhibitor/enzyme mixtures in assay buffer in 0.5 ml cuvette at 37° is added 10 μl of the substrate. Final inhibitor concentrations become 2000 nM, 200 nM, and 20 nM for the 200 μM, 20 μM and 2 μM stock concentrations, respectively. Activity is followed by release of free AFC over 5 min. The change in fluorescence is (fluorescence units at t=6)−(fluorescence units at t=1) with a Perkin-Elmer LS-5B spectrofluorometer (ex=400 nm, em=505 nm). The percent inhibition is determined by comparing the change in fluorescence units of the three sample concentrations of inhibited enzyme to the change in fluorescence units of the control enzyme. The percent inhibition is calculated as:
100−(fl. units of sample/fl. units of control×100).
The IC50 is ascertained by plotting percent inhibition vs. inhibitor concentration on the log scale. The IC50 is the concentration of the inhibitor (nM) at which the enzyme is inhibited by 50%.

The test system of data set [2] is T. cruzi. Briefly: Inhibition of T. cruzi in infected cells, cell line J774. Conditions: days before cell monolayer is destroyed by infection; 20 μM, daily change of medium plus inhibitor. Type of data set: cell-based. As to the method:
(§1) Survival time is measured in days before the cell monolayer is destroyed by the infection. Irradiated BHK and J774 cells (six well plates) were infected with T. cruzi and simultaneously treated with 20 μM (3 ml total volume) with daily change of culture medium+plus inhibitor).
(§2) Cultivation and preparation of T. cruzi. Cloned and uncloned populations were derived from the strains Brasil, and CA-I and are cryopreserved in liquid nitrogen. Axenically cultured epimastigotes are maintained in exponential growth phase by weekly passage in Brain Heart Infusion-Tryptose medium (BHT media as given in Cazzulo, Cazzulo, Martinez, and Cazzulo, Some Kinetic Properties of a Cysteine Proteinase (Cruzipain) from Trypanosoma Cruzi. 33 Mol. Biochem. Parasitol. 33-42 (1990)), supplemented with […] 10% (v/v) heat inactivated fetal calf serum (FCS). Different host cell lines (J774 mouse macrophage, BHK, etc.) are cultured with RPMI-1640 supplemented with 5% FCS at 37° in a humidified atmosphere containing 5% CO2. Trypomastigotes liberated from the host cells are used to infect new cultures for serial maintenance of the parasite in cell culture. The protocols used for the in vitro assays of cysteine protease inhibitors are essentially as described by Harth, Andrews, Mills, Engel, Smith, and McKerrow, Peptide-Fluoromethyl Ketones Arrest Intracellular Replication and Intercellular Transmission of Trypanosoma Cruzi. 58 Mol. Biochem. Parasitol. 17-24 (1993), with the exception that in some experiments, the host cells are irradiated (2400 RADs) before infection to prevent them from dividing.

The subject of data set [3] is T. cruzi. Nature of the data set: Inhibition of T. cruzi in infected cells, cell line BHK. To be noted: days before cell monolayer is destroyed by infection; 20 μM, daily change of medium plus inhibitor. In kind it is cell-based. As to the method: as §1, §2
In a further data set the test system is Pneumocystis carinii. Briefly: In vitro inhibition of Pneumocystis carinii in culture with human embryonic lung fibroblast monolayers. In kind it is cell-based. As to the method: The percent of inhibition is calculated as 100−(the number of P. carinii trophozoites in a treated cell culture/number of trophosites of the control)×100.
Methods. The drugs dissolved in dimethyl sulfoxide were diluted to concentrations of 10 μg/ml for compound 3 and […] for compound 9 in minimum essential medium used for the culture of human embryonic lung fibroblasts. […] Cell cultures in 24-well plates were innoculated with P. carinii trophozoites (final concentration, about 7×10^5 per ml) obtained from infected rat lungs. Each culture plate contained untreated and treated wells. Plates were incubated at 35° C. in a gas mixture of 5% O2, 10% CO2, 85% N2 for up to 7 days. Plates were sampled on days 1, 3, 5 and 7 by removal of 10 μl amounts after agitation of the cultures. The samples were placed on slides in 1-cm^2 areas, fixed in methanol and stained with Giemsa stain; and then they were examined microscopically as unknowns by two individuals. For each parameter there were four wells, making eight values for each parameter. Standard errors range from 3-13%. Cultures were spiked with fresh drugs on days 2, 4 and 6.

The mark [4] stands for this setting: inhibitors with other heterocycles, read-out: IC5 Cathepsin B Inhibition.
The mark [5] stands for this setting: purified cathepsin B, read-out: IC50 Cat B.

Read-outs that look alike come from different tables or passages of the source.

Take `CCC1OC(=O)C(OCC(=O)C(CCc2ccccc2)NC(=O)C(Cc2ccccc2)NC(=O)N2CCOCC2)=C1C` (centres unmarked): the IC50 in data set [1] (setting [4]) came out at 229 nM. As to `O=C1OC(C(O)CO)C(OCC(=O)C(CCc2ccccc2)NC(=O)C(Cc2ccccc2)NC(=O)N2CCOCC2)=C1O` [Compound 2, N-Morpholinecarbonyl-L-phenylalanyl-L-homophenylalanyl-α-(4-ascorbityl) methyl ketone], the IC50 in data set [1] (setting [5]) was found to be 141 nM.

Take `O=C(COc1nccc2ccccc12)[C@H](CCc1ccccc1)NC(=O)[C@H](Cc1ccccc1)NC(=O)N1CCOCC1`: in data set [1] (setting [4]), the IC50 was found to be 457 nM. `O=C1CC(=O)C(c2ccccc2)=C1OCC(=O)[C@H](CCc1ccccc1)NC(=O)[C@H](Cc1ccccc1)NC(=O)N1CCOCC1` [Compound 1, N-Morpholinecarbonyl-L-phenylalanyl-L-homophenylalanine-α-(4-oxy-5-phenyl-4-cyclopentene-1,3-dione) methyl ketone]: the IC50 in data set [1] (setting [5]) stood at 94 nM. In the case of `COc1ccc(C[C@H](NC(=O)N2CCOCC2)C(=O)N[C@@H](CCCCN)C(=O)COC2=C(c3ccccc3)C(=O)OC2)cc1` [Compound 10, N-Morpholinecarbonyl-L-tryosyl (O-methyl)-L-lysyl-(4-oxy-3-phenyl-dihydrofuran-2-one) methyl ketone], the melting point was in the range of 140 to 142 °C. For the same molecule, in data set [1] (setting [5]), the IC50 came out at 8 nM. In the same order, the values of `NCCCC[C@H](NC(=O)[C@H](Cc1ccccc1)NC(=O)N1CCOCC1)C(=O)COC1=C(c2ccccc2)C(=O)OC1` [Compound 11, N-Morpholinecarbonyl-L-phenylalanyl-L-lysyl-α-(4-oxy-3-phenyl-dihydrofuran-2-one) methyl ketone] are 140 to 145 °C and 5 nM. With `C[n+]1ccc2ccccc2c1OCC(=O)[C@H](CCc1ccccc1)NC(=O)[C@H](Cc1ccccc1)NC(=O)N1CCOCC1`, the IC50 in data set [1] (setting [4]) was 5600 nM. `O=C1OCC(OCC(=O)[C@H](CCc2ccccc2)NC(=O)[C@H](Cc2ccccc2)NC(=O)N2CCOCC2)=C1c1ccccc1` [Compound 9, N-Morpholinecarbonyl-L-phenylalanyl-L-homophenylalanyl-α-(4-oxy-3-phenyl-dihydrofuran-2-one) methyl ketone]: the melting point is 114 to 116 °C. Besides, the “Survival Time, Cell line J774” value in the data set with T. cruzi [2] was 4 days. Moreover, in the data set on T. cruzi [3], the “Survival Time, Cell line BHK” value stood at 6 days. Moreover, in data set [1] (setting [5]), the IC50 was 36 nM. `Cc1cc(OCC(=O)[C@H](CCCCN)NC(=O)[C@H](Cc2ccccc2)NC(=O)N2CCOCC2)cc(=O)o1` [Compound 7]: the melting point was in the range of 151 to 155 °C. Also, the IC50 in data set [1] (setting [5]) amounted to 25 nM. The corresponding values for `COc1ccc(C[C@H](NC(=O)N2CCOCC2)C(=O)N[C@@H](CCCCN)C(=O)COc2cc(C)oc(=O)c2)cc1` [Compound 8] are 140 to 142 °C and 83 nM.

Turning to `Cc1cc(=O)oc2cc(OCC(=O)[C@H](CCc3ccccc3)NC(=O)[C@H](Cc3ccccc3)NC(=O)N3CCOCC3)ccc12`, the IC50 in data set [1] (setting [4]) came to 4500 nM. The same measure, in the same setting: with `Cc1ccc2cccc(OCC(=O)[C@H](CCc3ccccc3)NC(=O)[C@H](Cc3ccccc3)NC(=O)N3CCOCC3)c2n1` the figure was 219 nM; with `Cc1occc(=O)c1OCC(=O)[C@H](CCc1ccccc1)NC(=O)[C@H](Cc1ccccc1)NC(=O)N1CCOCC1`, 385 nM. For `O=C(COc1cccs1)[C@H](CCc1ccccc1)NC(=O)[C@H](Cc1ccccc1)NC(=O)N1CCOCC1`, in data set [1] (setting [4]), the IC50 came to 79000 nM.

Take `O=C(COc1ncnc2ccccc12)[C@H](CCc1ccccc1)NC(=O)[C@H](Cc1ccccc1)NC(=O)N1CCOCC1`: in data set [1] (setting [4]), the IC50 turned out to be 1800 nM. On the same count and under the same terms, with `O=C(COc1cc2ccccc2o1)[C@H](CCc1ccccc1)NC(=O)[C@H](Cc1ccccc1)NC(=O)N1CCOCC1` the figure was 252 nM; with `Cc1cc(OCC(=O)[C@H](CCc2ccccc2)NC(=O)[C@H](Cc2ccccc2)NC(=O)N2CCOCC2)nc2ccccc12`, 282 nM.

Take `Cc1cc(OCC(=O)[C@H](CCc2ccccc2)NC(=O)[C@H](Cc2ccccc2)NC(=O)N2CCOCC2)cc(=O)o1` [Compound 3, N-Morpholinecarbonyl-L-phenylalanyl-L-homophenylalanyl-α-(4-oxy-6-methyl-2-pyrone) methyl ketone]: the inhibition at 10 µg/mL with Pneumocystis carinii (24 h, Day 1, 10 μg/ml for compound 3, 10 μM/ml for compound 9, read-out: Percent Inhibition, Day 1) came to 23%; in the data set on Pneumocystis carinii (48 h, Day 2, 10 μg/ml for compound 3, 10 μM/ml for compound 9, read-out: Percent Inhibition, Day 2) it was 44%; with Pneumocystis carinii (72 h, Day 3, 10 μg/ml for compound 3, 10 μM/ml for compound 9, read-out: Percent Inhibition, Day 3) it was 39%; in the data set on Pneumocystis carinii (96 h, Day 4, 10 μg/ml for compound 3, 10 μM/ml for compound 9, read-out: Percent Inhibition, Day 4), 13%. Besides, the IC50 in data set [1] (setting [5]) is 112 nM. On to `O=C(COc1nc2ccccc2s1)[C@H](CCc1ccccc1)NC(=O)[C@H](Cc1ccccc1)NC(=O)N1CCOCC1`, for which the IC50 in data set [1] (setting [4]) was found to be 21000 nM. Consider `Cc1cc(OCC(=O)[C@H](CCc2ccccc2)NC(=O)[C@H](CC(C)C)NC(=O)N2CCOCC2)cc(=O)o1` [Compound 5], for which the melting point lay in the range of 70 to 75 °C. Besides, in data set [1] (setting [5]), the IC50 worked out at 400 nM.

`O=C(COc1nc2ccccc2[nH]1)[C@H](CCc1ccccc1)NC(=O)[C@H](Cc1ccccc1)NC(=O)N1CCOCC1`: the IC50 in data set [1] (setting [4]) was 569 nM. Take `O=C(COc1ccc2ccc(=O)oc2c1)[C@H](CCc1ccccc1)NC(=O)[C@H](Cc1ccccc1)NC(=O)N1CCOCC1`: the IC50 in data set [1] (setting [4]) was 4500 nM. In the case of `CC1CC(OCC(=O)C(CCc2ccccc2)NC(=O)C(Cc2ccccc2)NC(=O)N2CCOCC2)=CC(=O)O1` [Compound 4, N-Morpholinecarbonyl-L-phenylalanyl-L-homophenylalanyl-α-(4-oxy-5,6-dihydro-6-methyl-2H-pyran-2-one) methyl ketone], the melting point is 74 to 78 °C. For the same molecule, in data set [1] (setting [5]), the IC50 amounted to 567 nM. Take `CCOC(=O)c1c(C)noc1OCC(=O)[C@H](CCc1ccccc1)NC(=O)[C@H](Cc1ccccc1)NC(=O)N1CCOCC1`: in data set [1] (setting [4]), the IC50 was determined as 2190 nM.

Consider `O=C(COc1cc(=O)oc2ccccc12)[C@H](CCc1ccccc1)NC(=O)[C@H](Cc1ccccc1)NC(=O)N1CCOCC1` [Compound 6, N-Morpholinecarbonyl-L-phenylalanyl-L-homophenylalanyl-α-(4-oxy-coumarin) methyl ketone], for which the melting point lay in the range of 115 to 119 °C. In addition, in the data set on T. cruzi [2], the “Survival Time, Cell line J774” value was at least 16 days. Moreover, the “Survival Time, Cell line BHK” value in the data set on T. cruzi [3] is at least 16 days. Besides, the IC50 in data set [1] (setting [5]) was 45 nM.
